One may read the Ki as the equilibrium dissociation constant of an inhibitor or competing ligand from its target.

Among the data in patent publication US20100105657A1, “Compounds, Process for their Preparation, Intermediates, Pharmaceutical Compositions and their use in the Treatment of 5-HT6 Mediated Disorders such as Alzheimer's Disease, Cognitive Disorders, Cognitive Impairment Associated with Schizophrenia, Obesity and Parkinson's Disease” (AstraZeneca AB, priority 2005, published 2010) are Ki values, retold here.

SMILES strings stand for the structures.

For this test, the target named is T1, Rat Striatal 5-HT6 Receptors (Rattus norvegicus, UniProt P31388).
T1 construct: Striatal tissue from adult rats (Sprague-Dawley, 320-370 g, B & K Sweden) were dissected out, weighed and homogenized; from tissue; host or cells: rat striatum (Sprague-Dawley) membranes
T1 sequence (P31388 whole entry): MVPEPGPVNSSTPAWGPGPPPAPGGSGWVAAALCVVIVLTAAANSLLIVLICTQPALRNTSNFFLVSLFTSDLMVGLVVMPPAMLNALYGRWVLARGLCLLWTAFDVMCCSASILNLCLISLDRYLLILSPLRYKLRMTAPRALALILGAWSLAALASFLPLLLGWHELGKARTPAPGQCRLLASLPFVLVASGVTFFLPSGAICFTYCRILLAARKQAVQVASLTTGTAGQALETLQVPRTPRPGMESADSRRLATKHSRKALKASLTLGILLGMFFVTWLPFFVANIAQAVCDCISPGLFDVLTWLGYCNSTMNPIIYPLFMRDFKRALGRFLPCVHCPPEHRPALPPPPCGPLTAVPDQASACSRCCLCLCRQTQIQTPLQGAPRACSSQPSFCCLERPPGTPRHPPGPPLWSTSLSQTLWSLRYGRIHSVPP
Nature of the test: [125I]SB258585 binding to rat striatal 5-HT6 receptors. The conditions noted are these: competition with [125I]SB258585, rat striatal membranes. On the procedure: Method for [125I]SB258585 Binding to Rat Striatal 5-HT6 Receptors
[^125I]SB258585 (1) with specific radioactivity 2000 Ci/mmol was purchased from Amersham Biosciences Europe GmbH, Freiburg, Germany. Other chemicals were purchased from commercial sources and were of analytical grade.
Striatal tissue from adult rats (Sprague-Dawley, 320-370 g, B & K Sweden) were dissected out, weighed and homogenized in buffer containing 50 mM Tris-HCl, 4 mM MgCl2, 1 mM EDTA, 10 μM pargyline and protease inhibitor (Complete, Roche Diagnostics) pH 7.4 using an Ultra-Turrax T8 (IKA Labortechnik, Germany). The tissue homogenate was centrifuged at 48 000×g for 10 min and the pellet was resuspended and recentrifuged as above. […]
Saturation binding studies were carried out in duplicate with 1-3 mg w.w. per tube in 0.5 ml buffer (50 mM Tris, 4 mM MgCl2, 100 mM NaCl, 1 mM EDTA, 5 mM ascorbate and 10 μM pargyline at pH 7.4), 0.2 nM [^125I]SB258585 and unlabelled SB258585 to give a final concentration range of 0.23-20 nM (12 conc.). Non-specific binding was determined in the presence of 10 μM methiothepin. […] The radioactivity was determined in a Packard Tri-Carb 2900TR liquid scintillation counter. Data were analyzed by non-linear regression analyses using PRISM 4.00 (GraphPad Software Inc., San Diego, Calif.). […]

Take `CN1CCOc2ccc(NS(=O)(=O)c3cccc(Cl)c3Cl)cc2C1` [Example 6, 2,3-dichloro-N-(4-methyl-2,3,4,5-tetrahydro-1,4-benzoxazepin-7-yl)benzenesulfonamide]: the Ki worked out at 31 ± 9 nM.

`O=S(=O)(Nc1ccc2c(c1)CNCCC2)c1csc(C(F)(F)F)c1-c1ccccc1` [Example 39, 4-phenyl-N-(2,3,4,5-tetrahydro-1H-2-benzazepin-8-yl)-5-(trifluoromethyl)thiophene-3-sulfonamide] yielded a Ki of 32 ± 14 nM.
